Assay results: ChEMBL document CHEMBL1122891, “Substituted 5H-dibenz[b,g]-1,4-oxazocines and related amino acids with antiinflammatory activity” (1985)

Key:
Type in all cases: functional
Rattus norvegicus [1] = assay: Percent reduction in swelling of the left hind paw in rat when 40 mg/kg of dose was injected perorally which was determined in adjuvant arthritis test; conditions: route oral
Rattus norvegicus [2] = species: Rattus norvegicus; assay: Activity relative to fenclofenac determined in adjuvant arthritis test
Rattus norvegicus [3] = assay: Percent reduction in swelling of the left hind paw in rat when 10 mg/kg of dose was injected perorally which was determined in adjuvant arthritis test; conditions: route oral
Rattus norvegicus [4] = assay: Minimum ulcerogenic dose was evaluated 24 hours after peroral administration; value may range from 12.5-25
Rattus norvegicus [5] = assay: Percent reduction in swelling of the left hind paw in rat when 20 mg/kg of dose was injected perorally which was determined in adjuvant arthritis test; conditions: route oral
Rattus norvegicus [6] = assay: Minimum ulcerogenic dose was evaluated 24 hours after peroral administration; value may range from 100-200
Rattus norvegicus [7] = assay: Percent reduction in swelling of the left hind paw in rat determined in adjuvant arthritis test, 25 mg/kg dose was perorally; conditions: route oral
Rattus norvegicus [8] = assay: Minimum ulcerogenic dose was evaluated 24 hours after peroral administration; value may range from 60-120
Rattus norvegicus [9] = assay: Percent reduction in swelling of the left hind paw in rat when 2 mg/kg of dose was injected perorally which was determined in adjuvant arthritis test; conditions: route oral
Rattus norvegicus [10] = assay: Minimum ulcerogenic dose was evaluated 24 hours after peroral administration; value may range from 50-80
Rattus norvegicus [11] = assay: Percent reduction in swelling of the left hind paw in rat when 35 mg/kg of dose was injected perorally which was determined in adjuvant arthritis test; conditions: route oral

Cc1ccc2c(c1)CCNc1cc(C)cc(Cl)c1O2
Reduction (Rattus norvegicus [1]): 19%

Nc1cc(Cl)cc(Cl)c1Oc1ccccc1CC(=O)O
Relative potency (Rattus norvegicus [2]): 6.8 | Reduction (Rattus norvegicus [3]): 41% | MUD (Rattus norvegicus [4]): 12.5 mg/kg

Cc1cccc(N(C)C)c1Oc1ccccc1CC(=O)O
Relative potency (Rattus norvegicus [2]): 2.1 | Reduction (Rattus norvegicus [5]): 38% | MUD (Rattus norvegicus [6]): 100 mg/kg

Cc1c(N)c(Oc2ccccc2CC(=O)O)c(Cl)c(C)c1Cl
Reduction (Rattus norvegicus [7]): 4% | MUD (Rattus norvegicus [8]): 60 mg/kg

CNc1cc(Cl)cc(Cl)c1Oc1ccccc1CC(=O)O
Relative potency (Rattus norvegicus [2]): 13 | Reduction (Rattus norvegicus [9]): 22%

COC(=O)Cc1ccccc1Oc1c(N)cc(Cl)cc1Cl
Reduction (Rattus norvegicus [7]): 38% | Relative potency (Rattus norvegicus [2]): 7.5 | MUD (Rattus norvegicus [10]): 50 mg/kg

Nc1ccccc1Oc1ccccc1CC(=O)O
Reduction (Rattus norvegicus [11]): 2%
